Reference: patent publication US8912144B2, “Method for treating stroke via administration of NEP1-40 and inosine” (Children's Medical Center Corporation, priority 2003, dated 2014)

Test system: corticospinal neurons (CSNs/CSMNs)
Assay: Laser-capture microdissection and Illumina microarray gene expression in corticospinal neurons contralateral to stroke
Format: in vivo, rat
Protocol: In a separate group of animals (n=20), layer V pyramidal cells of the sensorimotor cortex were retrogradely labeled by injecting Alexa-Fluor-488-conjugated cholera toxin B subunit (CTB; 300 U/μl in sterile saline) into the cervical spinal cord. For this, animals were anesthetized with a combination of ketamine and Domitor (medetomidine) and a laminectomy was performed at the cervical level of the spinal cord (C2-C4). CTB was stereotaxically delivered into four sites lateral to the corticospinal tract. Injections (1.3 μl) were spaced 1 mm apart on the rostro-caudal axis, and were made 0.5 mm to the left and right of the midline. After allowing two weeks for transport of the tracer, we performed either sham surgery with no treatment (n=6) or stroke surgery combined with saline (n=3) or inosine (n=4) treatment as described above. Seven days later, animals were decapitated under transient gas anesthesia, brains were removed and rinsed in cold RPMI medium, and a tissue block containing the sensorimotor cortex was dissected and placed in OCT Tissue Tek Medium (Sakura Finetek USA Inc., CA) on dry ice within five minutes of death. Ten μm sections were cut onto precleaned Gold Seal RITE-ON glass slides (Gold Seal Prod-ucts, Portsmouth, N.H.), placed on dry ice, and rapidly stored at −80° C.
Slide-mounted sections were thawed and dehydrated in RNAse-free ethanol gradients and xylene. Retro-gradely labeled, fluorescent cortical pyramidal cells in the undamaged hemisphere were individually captured using the Arcturus VERITAS system. ≧500 cells were collected from each animal and stored in Arcturus extraction buffer at −80° C. Total RNA was extracted from cells using the Micro-to-Midi TotalRNA Purification System (Invitrogen, Carlsbad Calif.) and double-amplified using the TargetAmp 2-Round Aminoallyl-aRNA Amplification kit 1.0 (Epicentre, Madison, Wis.). Amplified RNA was checked for average fragment length using the Agilent RNA 6000 Nano LabChip kit (Agilent Technologies, Santa Clara, Calif.) and then biotinylated and hybridized (1 μg) on Illumina RatRef-12 Expression BeadChip arrays (Illumina, San Diego Calif.), querying the expression of >22,000 RefSeq-curated rat transcripts. Results were obtained from a total of 15 samples representing 6 untreated controls, 4 animals with stroke treated with saline and 5 animals with stroke treated with inosine. Slides were processed and scanned with Illumina BeadStation platform according to the manufacturer protocol.
Raw data was analyzed using Bioconductor packages (www.bioconductor.org, (Gentleman et al., 2004)). Low level quality-control analysis was performed using inter-array Pearson correlation and clustering based on variance. Two arrays (1 saline and 1 inosine-treated) were outliers and were excluded from the analysis. Data was normalized using quantile normalization, and analysis of differential expression was performed using a linear model fitting (LIMMA package, (Smyth, 2005). Differentially expressed genes were classified according to gene ontology using Bioconductor packages and online tools (DAVID, http://david.abcc.ncifcrf.gov/). Pathway analysis was carried out using Ingenuity Pathway Analysis (Ingenuity Systems, www.ingenuity.com).

OC[C@H]1O[C@@H](n2cnc3c(O)ncnc32)[C@H](O)[C@@H]1O [inosine]
Signal Intensity, Spnb4 (ILMN_66300, inosine after stroke): 1147 | Fold-Induction Stroke, ino vs. cntrl, Bbp (ILMN_66323): 0.58 | Signal Intensity, Bbp (ILMN_66323, inosine after stroke): 1150 | Fold-Induction Stroke, ino vs. cntrl, LOC305122 (ILMN_66350): 0.58 | Signal Intensity, LOC305122 (ILMN_66350, inosine after stroke): 771 | Fold-Induction Stroke, ino vs. cntrl, Plekhb1 (ILMN_66651): 0.62 | Signal Intensity, Plekhb1 (ILMN_66651, inosine after stroke): 1687 | Fold-Induction Stroke, ino vs. cntrl, Ppp1r11 (ILMN_66809): 0.90 | Signal Intensity, Ppp1r11 (ILMN_66809, inosine after stroke): 865 | Fold-Induction Stroke, ino vs. cntrl, LOC501538 (ILMN_66820): 0.64 | Signal Intensity, LOC501538 (ILMN_66820, inosine after stroke): 1132 | Fold-Induction Stroke, ino vs. cntrl, Slc25a11 (ILMN_66823): 0.65 | Signal Intensity, Slc25a11 (ILMN_66823, inosine after stroke): 263 | Fold-Induction Stroke, ino vs. cntrl, Optn (ILMN_67016): 0.69 | Signal Intensity, Optn (ILMN_67016, inosine after stroke): 360 | Fold-Induction Stroke, ino vs. cntrl, Lxn (ILMN_67020): 0.72 | Signal Intensity, Lxn (ILMN_67020, inosine after stroke): 433 | Fold-Induction Stroke, ino vs. cntrl, Psmc5 (ILMN_67036): 0.54 | Signal Intensity, Psmc5 (ILMN_67036, inosine after stroke): 1620 | Fold-Induction Stroke, ino vs. cntrl, MGC72992 (ILMN_67222): 0.63 | Signal Intensity, MGC72992 (ILMN_67222, inosine after stroke): 359 | Fold-Induction Stroke, ino vs. cntrl, Ywhaq (ILMN_67273): 0.66 | Signal Intensity, Ywhaq (ILMN_67273, inosine after stroke): 2844 | Fold-Induction Stroke, ino vs. cntrl, LOC498696 (ILMN_67275): 0.51 | Signal Intensity, LOC498696 (ILMN_67275, inosine after stroke): 514 | Fold-induction CSMNs: Cd63 (ILMN_67382, over and above inosine's effect of decreasing stroke-induced changes): 2.10 fold | Fold-Induction Stroke, ino vs. cntrl, Ggcx (ILMN_67463): 0.93 | Signal Intensity, Ggcx (ILMN_67463, inosine after stroke): 526 | Fold-Induction Stroke, ino vs. cntrl, Kif3b (ILMN_67572): 0.79 | Signal Intensity, Kif3b (ILMN_67572, inosine after stroke): 642 | Fold-Induction Stroke, ino vs. cntrl, Zfp422 (ILMN_67578): 0.99 | Signal Intensity, Zfp422 (ILMN_67578, inosine after stroke): 557 | Fold-induction CSMNs: Ms4a6b (ILMN_67686, over and above inosine's effect of decreasing stroke-induced changes): 2.03 fold | Fold-Induction Stroke, ino vs. cntrl, Dcamkl1 (ILMN_67724): 0.59 | Signal Intensity, Dcamkl1 (ILMN_67724, inosine after stroke): 4398 | Fold-Induction Stroke, ino vs. cntrl, LOC501601 (ILMN_67885): 0.54 | Signal Intensity, LOC501601 (ILMN_67885, inosine after stroke): 791 | Fold-Induction Stroke, ino vs. cntrl, Ca2 (ILMN_67903): 0.47 | Signal Intensity, Ca2 (ILMN_67903, inosine after stroke): 1008 | Fold-Induction Stroke, ino vs. cntrl, LOC287622 (ILMN_67961): 0.69 | Signal Intensity, LOC287622 (ILMN_67961, inosine after stroke): 400 | Fold-induction CSMNs: Gfap (ILMN_68224, over and above inosine's effect of decreasing stroke-induced changes): 2.46 fold | Fold-Induction Stroke, ino vs. cntrl, Lkap (ILMN_68337): 0.64 | Signal Intensity, Lkap (ILMN_68337, inosine after stroke): 758 | Fold-Induction Stroke, ino vs. cntrl, Gsn (ILMN_68511): 0.64 | Signal Intensity, Gsn (ILMN_68511, inosine after stroke): 2157 | Fold-Induction Stroke, ino vs. cntrl, Flot2 (ILMN_68584): 0.70 | Signal Intensity, Flot2 (ILMN_68584, inosine after stroke): 667 | Fold-Induction Stroke, ino vs. cntrl, Rab40b (ILMN_68736): 0.63 | Signal Intensity, Rab40b (ILMN_68736, inosine after stroke): 476 | Fold-Induction Stroke, ino vs. cntrl, Dhcr24 (ILMN_68892): 0.53 | Signal Intensity, Dhcr24 (ILMN_68892, inosine after stroke): 1032 | Fold-Induction Stroke, ino vs. cntrl, Sfxn3 (ILMN_68903): 0.57 | Signal Intensity, Sfxn3 (ILMN_68903, inosine after stroke): 261 | Fold-Induction Stroke, ino vs. cntrl, Tde2 (ILMN_68952): 0.53 | Signal Intensity, Tde2 (ILMN_68952, inosine after stroke): 545 | Fold-Induction Stroke, ino vs. cntrl, RGD1309158 (ILMN_69031): 0.52 | Signal Intensity, RGD1309158 (ILMN_69031, inosine after stroke): 630 | Fold-Induction Stroke, ino vs. cntrl, LOC289036 (ILMN_69224): 0.72 | Signal Intensity, LOC289036 (ILMN_69224, inosine after stroke): 1532 | Fold-induction CSMNs: Arpc1b (ILMN_69642, over and above inosine's effect of decreasing stroke-induced changes): 2.31 fold | Fold-Induction Stroke, ino vs. cntrl, Ubl3 (ILMN_69708): 0.83 | Signal Intensity, Ubl3 (ILMN_69708, inosine after stroke): 479 | Fold-Induction, complement cascade gene Bf (B-factor, properdin) (ILMN_69719, LCM-captured CSMNs contralateral a stroke): 2.73 fold | Fold-Induction Stroke, ino vs. cntrl, LOC296126 (ILMN_69931): 0.64 | Signal Intensity, LOC296126 (ILMN_69931, inosine after stroke): 332 | Fold-Induction Stroke, ino vs. cntrl, LOC315463 (ILMN_69949): 0.54 | Signal Intensity, LOC315463 (ILMN_69949, inosine after stroke): 709 | Fold-Induction Stroke, ino vs. cntrl, Zfp216 (ILMN_70270): 0.66 | Signal Intensity, Zfp216 (ILMN_70270, inosine after stroke): 888 | Fold-induction CSMNs: A2m (ILMN_70335, over and above inosine's effect of decreasing stroke-induced changes): 4.10 fold | Fold-Induction Stroke, ino vs. cntrl, LOC366188 (ILMN_70369): 0.85 | Signal Intensity, LOC366188 (ILMN_70369, inosine after stroke): 1100
